Experimental data as given in publication PMC2755957 (The Journal of Biological Chemistry, 2009).
Residue numbers refer to the chain shown, from its start.

What was measured:
[1] = biological target: T1, mouse Δ1–24-L-PGDS (lipocalin type prostaglandin D synthase) (Mus musculus, UniProt O09114, S45A/S81A/T67A); assay: surface plasmon resonance; assay type: binding
T1 sequence (O09114 25-189 S45A/T67A/S81A): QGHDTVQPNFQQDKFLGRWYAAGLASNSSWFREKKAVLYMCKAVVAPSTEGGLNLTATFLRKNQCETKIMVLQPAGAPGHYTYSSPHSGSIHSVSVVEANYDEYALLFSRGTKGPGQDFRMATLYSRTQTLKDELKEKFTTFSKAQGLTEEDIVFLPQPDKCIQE

[2] = biological target: T2, mouse Δ1–24-L-PGDS (lipocalin type prostaglandin D synthase) (Mus musculus, UniProt O09114, H111A/W54A); assay: surface plasmon resonance; assay type: binding
T2 sequence (O09114 25-189 W54A/H111A): T1 sequence (O09114 25-189 S45A/T67A/S81A) with A21S, W30A, A43T, A57S, H87A

[3] = biological target: T3, mouse Δ1–24-L-PGDS (lipocalin type prostaglandin D synthase) (Mus musculus, UniProt O09114, W54A); assay: surface plasmon resonance; assay type: binding
T3 sequence (O09114 25-189 W54A): T1 sequence (O09114 25-189 S45A/T67A/S81A) with A21S, W30A, A43T, A57S

[4] = biological target: T4, mouse Δ1–24-L-PGDS (lipocalin type prostaglandin D synthase) (Mus musculus, UniProt O09114, T67A); assay: surface plasmon resonance; assay type: binding
T4 sequence (O09114 25-189 T67A): T1 sequence (O09114 25-189 S45A/T67A/S81A) with A21S, A57S

[5] = biological target: T5, mouse Δ1–24-L-PGDS (lipocalin type prostaglandin D synthase) (Mus musculus, UniProt O09114); assay: surface plasmon resonance; assay type: binding
T5 sequence (O09114 25-189): T1 sequence (O09114 25-189 S45A/T67A/S81A) with A21S, A43T, A57S

[6] = biological target: T6, mouse Δ1–24-L-PGDS (lipocalin type prostaglandin D synthase) (Mus musculus, UniProt O09114, C65A); assay: surface plasmon resonance; assay type: binding
T6 sequence (O09114 25-189 C65A): T1 sequence (O09114 25-189 S45A/T67A/S81A) with A21S, C41A, A43T, A57S

[7] = biological target: T7, mouse Δ1–24-L-PGDS (lipocalin type prostaglandin D synthase) (Mus musculus, UniProt O09114, S81A); assay: surface plasmon resonance; assay type: binding
T7 sequence (O09114 25-189 S81A): T1 sequence (O09114 25-189 S45A/T67A/S81A) with A21S, A43T

[8] = biological target: T5, mouse Δ1–24-L-PGDS (lipocalin type prostaglandin D synthase); assay: PGDS assay, [[…]-14C]PGH2 to [[…]-14C]PGD2 by TLC; assay type: biochemical
Δ^1–24-C65A + W54A = biological target: T8, Δ^1–24-C65A + W54A (Mus musculus, UniProt O09114, C65A/W54A); assay: biochemical
T8 sequence (O09114 1-189 W54A/C65A): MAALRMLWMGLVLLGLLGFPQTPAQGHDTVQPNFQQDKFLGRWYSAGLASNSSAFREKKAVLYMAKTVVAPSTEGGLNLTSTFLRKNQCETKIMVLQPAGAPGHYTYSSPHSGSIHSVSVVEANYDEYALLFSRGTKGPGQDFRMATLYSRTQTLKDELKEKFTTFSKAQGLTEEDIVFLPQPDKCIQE

Δ^1–24-C65A + H111A = biological target: T9, Δ^1–24-C65A + H111A (Mus musculus, UniProt O09114, C65A/H111A); assay: biochemical
T9 sequence (O09114 1-189 C65A/H111A): T8 sequence (O09114 1-189 W54A/C65A) with A54W, H111A

[9] = biological target: T10, Δ^1–24-L-PGDS + S45A/T67A (Mus musculus, UniProt O09114, S45A/T67A); assay: biochemical
T10 sequence (O09114 1-189 S45A/T67A): T8 sequence (O09114 1-189 W54A/C65A) with S45A, A54W, A65C, T67A

[10] = biological target: T11, Δ^1–24-L-PGDS + T67A/S81A (Mus musculus, UniProt O09114, S81A/T67A); assay: biochemical
T11 sequence (O09114 1-189 T67A/S81A): T8 sequence (O09114 1-189 W54A/C65A) with A54W, A65C, T67A, S81A

SMILES	Kd [1] [µM]	Kd [2] [µM]	Kd [3] [µM]	Kd [4] [µM]	Kd [5] [µM]	Kd [6] [µM]	Kd [7] [µM]	Ki [8] [µM]	Kd (Δ^1–24-C65A + W54A) [µM]	Kd (Δ^1–24-C65A + H111A) [µM]	Kd [9] [µM]	Kd [10] [µM]
CCCCC[C@H](O)/C=C/[C@@H]1[C@@H](C/C=C\CCCC(=O)O)[C@H]2CO[C@@H]1C2 [U-46619]	22 ± 2	48.5 ± 4.4	44 ± 3.9	26.9 ± 5.3	22.8 ± 1.6	22.1 ± 1.5	17 ± 1.7	36	42.4 ± 3.4	37.2 ± 3.5	19.1 ± 2.5	19.6 ± 2.3
CCCCC[C@H](O)/C=C/[C@H]1[C@@H]2CO[C@@H](C2)[C@@H]1C/C=C\CCCC(=O)O [U-44069]	12.9 ± 2.4	20.6 ± 1.4	20.3 ± 1.9	12.3 ± 3	17.5 ± 1.2	20.2 ± 2.5	14.6 ± 2.4	30	49.2 ± 3.7	38.1 ± 2.4	7.2 ± 1.6	13.5 ± 2.3
